Data reported in article PMC11035592, “Intranasal oxytocin suppresses seizure-like behaviors in a mouse model of NGLY1 deficiency” (Communications Biology, 2024).

Key:
[1] = test system: patients with NGLY1 deficiency; conditions: cited from earlier work
Text: For epileptic seizures in patients with NGLY1 deficiency, some approved drugs, including levetiracetam, valproate, lamotrigine, and clobazam, have been tested; however, their efficacies were limited.

[2] = test system: generally healthy older men (55–95 years old); conditions: chronic intranasal administration, twice daily for four weeks; cited from earlier work
Text: (§1) The safety of single or chronic intranasal oxytocin administration has been investigated in several clinical studies. […] Based on these clinical studies, oxytocin has the potential to be administered to patients with NG ...

[3] = test system: school-age children (8–12 years old); conditions: 90 min and 24 h after a single intranasal administration; cited from earlier work
Text: as §1

[4] = Oxytocin levels in plasma, brain and spinal cord 5 min after intranasal oxytocin (enzyme immunoassay); format: in vivo, mouse; set-up: Oxytocin level, Thalamus, Mean / Oxytocin level, Hypothalamus, Mean / Oxytocin level, Cortex, Mean / Oxytocin level, Spinal cord, Mean / Oxytocin level, Striatum, Mean / Oxytocin level, Hippocampus, Mean: unit not given here; conditions: for Oxytocin level, Cortex, Mean / Oxytocin level, Hippocampus, Mean / Oxytocin level, Hypothalamus, Mean / Oxytocin level, Plasma, Mean / Oxytocin level, Spinal cord, Mean / Oxytocin level, Striatum, Mean / Oxytocin level, Thalamus, Mean: mean of n = 3; for Oxytocin level, Cortex, % of Control / Oxytocin level, Hippocampus, % of Control / Oxytocin level, Hypothalamus, % of Control / Oxytocin level, Spinal cord, % of Control / Oxytocin level, Striatum, % of Control / Oxytocin level, Thalamus, % of Control: mean, figure corresponds to % of the plasma 0 mg/kg mean; for Oxytocin level, Plasma, % of Control: mean as % of 0 mg/kg plasma mean
Description: Delivery of intranasal oxytocin to the central nervous system was confirmed using 17 to 18-week-old female Ngly1^−/− mice.
Fig. 5 Oxytocin levels in the plasma, brain, and spinal cord of Ngly1^−/− mice after intranasal administration of oxytocin. Oxytocin (10, 100 mg/kg) or saline was intranasally administered to female Ngly1^−/− mice (17 or 18-week-old) under anesthesia with 2.5% isoflurane (a). b Plasma, c hippocampus, d striatum, e cerebral cortex, f spinal cord, g thalamus, and h hypothalamus were collected 5 min after the single administration. Oxytocin levels were measured using enzyme immunoassay. Data represent mean + standard deviation and individual values (N = 3). […]
Oxytocin peptide (CAS number 50-56-6) was purchased from AA Blocks (San Diego, CA, USA) and dissolved in saline at a maximum concentration of 200 mg/mL. Female Ngly1^−/− mice were anesthetized with 2.5% isoflurane and intranasally administered with oxytocin using a manual pipette at a volume of 0.5 ml/kg. Oxytocin solutions were prepared in Protein LoBind Tubes (Eppendorf, Hamburg, Germany) just before the intranasal administration.

[5] = female Ngly1−/− mice, 17 to 18-week-old, 10 or 100 mg/kg single intranasal, 5 min after administration, enzyme immunoassay, N = 3, vs saline

## CN1C(=O)CC(=O)N(c2ccccc2)c2cc(Cl)ccc21 [clobazam]
[1]
  efficacy for epileptic seizures: limited

## CC[C@@H](C(N)=O)N1CCCC1=O [levetiracetam]
[1]
  efficacy for epileptic seizures: limited

## CCCC(CCC)C(=O)O [valproate]
[1]
  efficacy for epileptic seizures: limited

## CC[C@H](C)[C@@H]1NC(=O)[C@H](Cc2ccc(O)cc2)NC(=O)[C@@H](N)CSSC[C@@H](C(=O)N2CCC[C@H]2C(=O)N[C@@H](CC(C)C)C(=O)NCC(N)=O)NC(=O)[C@H](CC(N)=O)NC(=O)[C@H](CCC(N)=O)NC1=O [oxytocin, Oxytocin]
[2]
  tolerability: well-tolerated
[3]
  side-effects: no side-effect
[4]; 10 mg/kg intranasal
  Oxytocin level, Cortex, Mean: 2.20
  Oxytocin level, Cortex, % of Control: 0.776%
  Oxytocin level, Hippocampus, Mean: 8.47
  Oxytocin level, Hippocampus, % of Control: 3%
  Oxytocin level, Hypothalamus, Mean: 87.40
  Oxytocin level, Hypothalamus, % of Control: 31%
  Oxytocin level, Plasma, % of Control: 4479%
  Oxytocin level, Plasma, Mean: 12705.67
  Oxytocin level, Spinal cord, Mean: 2.17
  Oxytocin level, Spinal cord, % of Control: 0.764%
  Oxytocin level, Striatum, Mean: 2.60
  Oxytocin level, Striatum, % of Control: 0.917%
  Oxytocin level, Thalamus, Mean: 3.40
  Oxytocin level, Thalamus, % of Control: 1.2%
[4]; 100 mg/kg intranasal
  Oxytocin level, Cortex, Mean: 15.07
  Oxytocin level, Cortex, % of Control: 5.31%
  Oxytocin level, Hippocampus, Mean: 23.47
  Oxytocin level, Hippocampus, % of Control: 8%
  Oxytocin level, Hypothalamus, Mean: 132.73
  Oxytocin level, Hypothalamus, % of Control: 47%
  Oxytocin level, Plasma, % of Control: 26235%
  Oxytocin level, Plasma, Mean: 74420.67
  Oxytocin level, Spinal cord, Mean: 4.10
  Oxytocin level, Spinal cord, % of Control: 1.45%
  Oxytocin level, Striatum, Mean: 24.23
  Oxytocin level, Striatum, % of Control: 8.54%
  Oxytocin level, Thalamus, Mean: 42.47
  Oxytocin level, Thalamus, % of Control: 15%
[4]; [5]
  increasing trend of oxytocin level in hypothalamus: not observed
  oxytocin level in cerebral cortex: increased
  oxytocin level in hippocampus: increased
  oxytocin level in plasma: increased
  oxytocin level in spinal cord: increased
  oxytocin level in striatum: increased
  oxytocin level in thalamus: increasing trend

## Nc1nnc(-c2cccc(Cl)c2Cl)c(N)n1 [lamotrigine]
[1]
  efficacy for epileptic seizures: limited
